Values of other authors as cited in patent US20210008096A1, “SUPPRESSION OR REDUCTION OF THE PAT[…] VIRULENCE OF A C[…]” (Da Volterra, priority 2015, published 2021).

System: Clostridium difficile
Settings: following treatment of CDAD; 15% vs 25%

Structure (SMILES): CCc1c(Cl)c(O)c(Cl)c(O)c1C(=O)O[C@H]1[C@H](O)[C@H](OC)[C@H](OC/C2=C\C=C\C[C@H](O)/C(C)=C/[C@H](CC)[C@@H](O[C@@H]3OC(C)(C)[C@@H](OC(=O)C(C)C)[C@H](O)[C@@H]3O)/C(C)=C/C(C)=C/C[C@@H]([C@@H](C)O)OC2=O)O[C@@H]1C [fidaxomycin, fidaxomicin]
- rate of recurrence: 15%
